{"source": "BindingDB's records for patent US20230271968", "about": "(Beijing Tide Pharmaceutical, 2023)", "molecular_target": "Serine/threonine-protein kinase ATR (Homo sapiens, UniProt Q13535)", "sequence (Q13535 whole entry)": "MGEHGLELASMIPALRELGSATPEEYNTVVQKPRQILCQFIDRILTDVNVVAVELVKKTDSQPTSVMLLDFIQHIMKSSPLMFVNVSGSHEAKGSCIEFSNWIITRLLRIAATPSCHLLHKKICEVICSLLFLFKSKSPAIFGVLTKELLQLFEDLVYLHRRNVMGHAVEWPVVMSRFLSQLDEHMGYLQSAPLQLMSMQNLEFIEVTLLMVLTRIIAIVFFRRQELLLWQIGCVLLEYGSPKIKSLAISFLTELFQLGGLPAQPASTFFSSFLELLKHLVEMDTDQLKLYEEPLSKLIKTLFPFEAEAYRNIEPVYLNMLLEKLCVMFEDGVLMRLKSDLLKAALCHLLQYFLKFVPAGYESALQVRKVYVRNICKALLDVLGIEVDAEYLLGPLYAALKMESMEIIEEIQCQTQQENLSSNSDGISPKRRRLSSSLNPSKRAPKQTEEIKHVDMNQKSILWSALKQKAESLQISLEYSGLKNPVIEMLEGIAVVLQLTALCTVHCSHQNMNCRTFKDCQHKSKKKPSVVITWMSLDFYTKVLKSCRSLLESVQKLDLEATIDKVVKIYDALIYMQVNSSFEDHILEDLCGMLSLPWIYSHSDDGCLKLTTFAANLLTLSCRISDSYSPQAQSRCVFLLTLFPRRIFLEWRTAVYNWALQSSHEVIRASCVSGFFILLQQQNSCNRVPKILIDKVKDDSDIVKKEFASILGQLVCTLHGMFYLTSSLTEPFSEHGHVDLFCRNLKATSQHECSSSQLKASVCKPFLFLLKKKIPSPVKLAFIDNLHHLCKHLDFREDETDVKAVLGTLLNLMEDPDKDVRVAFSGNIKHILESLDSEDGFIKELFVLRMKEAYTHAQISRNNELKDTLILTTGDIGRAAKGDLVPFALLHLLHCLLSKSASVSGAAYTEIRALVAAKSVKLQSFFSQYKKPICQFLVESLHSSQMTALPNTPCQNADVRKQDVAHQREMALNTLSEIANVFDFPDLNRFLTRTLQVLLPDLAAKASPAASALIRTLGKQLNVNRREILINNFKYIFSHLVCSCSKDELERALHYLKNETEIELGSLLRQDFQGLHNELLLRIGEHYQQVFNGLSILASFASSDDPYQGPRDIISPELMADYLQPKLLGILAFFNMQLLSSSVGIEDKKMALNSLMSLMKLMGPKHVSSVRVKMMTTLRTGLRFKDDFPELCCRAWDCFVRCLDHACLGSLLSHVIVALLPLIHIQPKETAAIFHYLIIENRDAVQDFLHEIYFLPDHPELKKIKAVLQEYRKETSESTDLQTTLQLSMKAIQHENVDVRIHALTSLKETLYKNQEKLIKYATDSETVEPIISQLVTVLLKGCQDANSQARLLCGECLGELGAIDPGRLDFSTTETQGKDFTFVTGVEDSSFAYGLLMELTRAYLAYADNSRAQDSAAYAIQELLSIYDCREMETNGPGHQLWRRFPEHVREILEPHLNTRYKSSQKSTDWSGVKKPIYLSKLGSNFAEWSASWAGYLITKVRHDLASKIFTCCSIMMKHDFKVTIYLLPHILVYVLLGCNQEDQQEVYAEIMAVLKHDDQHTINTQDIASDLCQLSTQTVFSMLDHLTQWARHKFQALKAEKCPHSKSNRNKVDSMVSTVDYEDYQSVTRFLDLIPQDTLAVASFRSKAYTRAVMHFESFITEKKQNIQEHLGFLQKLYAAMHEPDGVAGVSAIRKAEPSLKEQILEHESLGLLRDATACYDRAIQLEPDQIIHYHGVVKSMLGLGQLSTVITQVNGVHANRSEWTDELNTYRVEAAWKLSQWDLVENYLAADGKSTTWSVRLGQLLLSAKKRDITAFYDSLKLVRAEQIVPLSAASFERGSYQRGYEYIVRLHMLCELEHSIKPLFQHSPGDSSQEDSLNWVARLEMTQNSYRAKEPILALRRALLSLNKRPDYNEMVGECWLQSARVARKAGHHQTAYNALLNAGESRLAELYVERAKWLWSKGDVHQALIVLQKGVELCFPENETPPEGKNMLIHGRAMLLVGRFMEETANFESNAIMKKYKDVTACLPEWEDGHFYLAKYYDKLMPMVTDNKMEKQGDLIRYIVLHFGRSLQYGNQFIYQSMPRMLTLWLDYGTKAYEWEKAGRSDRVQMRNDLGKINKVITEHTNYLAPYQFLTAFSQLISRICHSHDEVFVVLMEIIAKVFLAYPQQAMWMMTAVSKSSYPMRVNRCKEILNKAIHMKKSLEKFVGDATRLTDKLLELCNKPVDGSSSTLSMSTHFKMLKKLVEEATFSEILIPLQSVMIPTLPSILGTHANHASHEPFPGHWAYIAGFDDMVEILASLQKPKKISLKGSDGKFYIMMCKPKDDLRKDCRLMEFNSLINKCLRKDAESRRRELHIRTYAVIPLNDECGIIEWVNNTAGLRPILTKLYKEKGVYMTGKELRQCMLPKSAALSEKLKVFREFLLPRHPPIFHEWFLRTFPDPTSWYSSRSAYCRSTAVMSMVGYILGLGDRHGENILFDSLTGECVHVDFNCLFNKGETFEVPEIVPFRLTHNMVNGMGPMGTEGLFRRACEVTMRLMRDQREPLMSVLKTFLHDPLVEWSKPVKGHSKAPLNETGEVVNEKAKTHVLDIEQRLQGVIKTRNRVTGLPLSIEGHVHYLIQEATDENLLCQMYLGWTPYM", "experiment": "Assay of ATR Kinase Activity", "method": "The amount of phosphorylated protein was determined by time-resolved fluorescence in this assay. The amount of phosphorylated protein was detected by anti-p53-phospho-(serine 15)-K-specific antibody (Cisbio, art. No.: 61GSTDLA) and d2 labeled anti-GST antibody (Cisbio, art. No. 61P08KAE). […] The reagents used above were purchased from Sigma or Invitrogen, except for those whose manufacturers were mentioned.", "data": [{"smiles": "Cc1nn(-c2cncc(C#N)c2)c(C)c1-c1cc(N2CCOC[C@H]2C)nc2c(-c3ccn[nH]3)cnn12", "note": "[US20230271968, Compound A11]", "values": [{"measurement": "IC50", "result": 9, "unit": "nM"}]}]}
